Key:
pigweed = assay: Test A pre-/postemergence herbicide test; assay type: in vivo, Amaranthus retroflexus; settings: for Plant response rating, Pigweed: 0 to 100 scale
Summary of the method: (§1)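 Scoring was visual, relative to untreated controls, on a 0–100 scale after about 10 greenhouse days. Preemergence treatment used a directed soil spray over seeded loam/sand; postemergence treatment targeted one- to two-leaf plants of 2–10 cm.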

wheat = assay: Test A pre-/postemergence herbicide test; assay type: in vivo, Triticum aestivum; settings: Postemergence; for Plant response rating, Wheat: 125 g ai/ha, 0 to 100 scale; for Wheat plant response rating (0 to 100 scale, 0 is no effect, 100 is complete control): 500 g ai/ha
Summary of the method: as §1

corn = assay: Test A pre-/postemergence herbicide test; assay type: in vivo, Zea mays; settings: Postemergence
Summary of the method: as §1

rice = assay: Test B flooded paddy test; assay type: in vivo, Oryza sativa; settings: 500 g ai/ha, Flood; scale of 0 to 100 where 0 is no effect and 100 is complete control
Summary of the method: (§2)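 Visual ratings from 0, meaning no effect, up to 100, meaning complete control, were made by comparison with untreated controls 13 to 15 days after treatment. Test compounds went straight into floodwater standing 3 cm over the soil of pots holding 2-leaf seedlings.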

sedge, umbrella = assay: Test B flooded paddy test; assay type: in vivo, Cyperus difformis; settings: 500 g ai/ha, Flood; scale of 0 to 100 where 0 is no effect and 100 is complete control
Summary of the method: as §2

barnyardgrass = assay: Test B flooded paddy test; assay type: in vivo, Echinochloa crus-galli; settings: 500 g ai/ha, Flood; scale of 0 to 100 where 0 is no effect and 100 is complete control
Summary of the method: as §2

wheat (winter wheat) = assay: Test C pre-/postemergence herbicide test; assay type: in vivo, Triticum aestivum
Summary of the method: (§3)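 Response scores range from 0, meaning no effect, to 100, meaning complete control, assigned visually by comparison with controls roughly two weeks (13 to 15 days) after spraying. Applications were made preemergence to seeded loam–sand soil and postemergence to 1- to 4-leaf plants.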

morningglory = assay: Test C pre-/postemergence herbicide test; assay type: in vivo, Ipomoea coccinea
Summary of the method: as §3

ragweed = assay: Test C pre-/postemergence herbicide test; assay type: in vivo, Ambrosia elatior
Summary of the method: as §3

oilseed rape = assay: Test C pre-/postemergence herbicide test; assay type: in vivo, Brassica napus
Summary of the method: as §3

waterhemp = assay: Test C pre-/postemergence herbicide test; assay type: in vivo, Amaranthus rudis
Summary of the method: as §3

oat, wild = assay: Test C pre-/postemergence herbicide test; assay type: in vivo, Avena fatua; settings: Postemergence
Summary of the method: as §3

[1] = 125 g ai/ha, visual rating, 0 no effect, 100 complete control, approximately 10 days, preemergence
[2] = Postemergence, 31 g ai/ha, scale 0 to 100 (0 no effect, 100 complete control)
[3] = Postemergence, 62 g ai/ha, scale 0 (no effect) to 100 (complete control)
[4] = Postemergence, 125 g ai/ha, scale 0 to 100 (0 no effect, 100 complete control)
[5] = Postemergence, 250 g ai/ha, scale 0 to 100 (0 no effect, 100 complete control)
[6] = Preemergence, 31 g ai/ha, scale 0 to 100, 0 is no effect and 100 is complete control
[7] = Preemergence, 62 g ai/ha, scale 0 to 100
[8] = Preemergence, 125 g ai/ha, scale 0 to 100 (0 no effect, 100 complete control)
[9] = 31 g ai/ha, scale 0 to 100 (0 no effect, 100 complete control)
[10] = 62 g ai/ha, scale 0 (no effect) to 100 (complete control)
[11] = 125 g ai/ha, scale 0 to 100 (0 no effect, 100 complete control)
[12] = 250 g ai/ha, scale 0 to 100 (0 no effect, 100 complete control)
[13] = Preemergence, 62 g ai/ha, scale 0 to 100 (0 no effect, 100 complete control)

In the case of `O=C1NCC(c2ccc(F)cc2)C1C(=O)Nc1ccc(F)c(F)c1F` (racemic) [Compound 120], the “Plant response rating, Pigweed” value (pigweed; [1]) is reported as 30, the “Plant response rating, Pigweed” value (pigweed; Postemergence, 125 g ai/ha, 0 no effect, 100 complete control) is reported as 20 and the “Pigweed plant response rating (0 to 100 scale, 0 is no effect, 100 is complete control)” value (pigweed; Postemergence, 500 g ai/ha) is reported as 50. For the same molecule, the “Plant response rating, Pigweed” value (pigweed; preemergence, 500 g ai/ha) was 40, the “Plant response rating, Wheat” value (wheat; 0 no effect, 100 complete control) was 20 and the “Wheat plant response rating (0 to 100 scale, 0 is no effect, 100 is complete control)” value (wheat) was 60. The “Plant response rating, Corn” value (corn; 125 g ai/ha, 0 to 100 scale, 0 no effect, 100 complete control) was 20, the “Plant response rating, Corn” value (corn; 500 g ai/ha, 0 to 100 scale (0 no effect, 100 complete control)) was 80 and the “Plant response rating, Rice” value (rice) was 20. The “Plant response rating, Sedge, Umbrella” value (sedge, umbrella) was 0, the “Plant response rating, Barnyardgrass” value (barnyardgrass) was 80 and the “Plant response rating, Wheat” value (wheat (winter wheat); [2]) was 0. The “Plant response rating, Wheat” value (wheat (winter wheat); [3]) was 0, the “Plant response rating, Wheat” value (wheat (winter wheat); [4]) was 0 and the “Plant response rating, Wheat” value (wheat (winter wheat); [5]) was 0. The “Wheat plant response rating” value (wheat (winter wheat); [6]) was 10, the “Plant response rating, Wheat” value (wheat (winter wheat); [7]) was 35 and the “Plant response rating, Wheat” value (wheat (winter wheat); [8]) was 30. The “Plant response rating (scale of 0 to 100), Wheat” value (wheat (winter wheat); Preemergence, 250 g ai/ha) was 85, the “Plant response rating, Morningglory” value (morningglory; [2]) was 0 and the “Plant response rating, Morningglory” value (morningglory; [3]) was 5. The “Plant response rating, Morningglory” value (morningglory; [4]) was 0, the “Plant response rating, Morningglory” value (morningglory; [5]) was 5 and the “Morningglory plant response rating” value (morningglory; [6]) was 0. For the same molecule, the “Plant response rating, Morningglory” value (morningglory; [7]) was 0, the “Plant response rating, Morningglory” value (morningglory; [8]) was 35 and the “Plant response rating (scale of 0 to 100), Morningglory” value (morningglory; Preemergence, 250 g ai/ha) was 40. For the same molecule, the “Plant response rating, Ragweed” value (ragweed; [2]) was 20, the “Plant response rating, Ragweed” value (ragweed; [3]) was 45 and the “Plant response rating, Ragweed” value (ragweed; [4]) was 40. For the same molecule, the “Plant response rating, Ragweed” value (ragweed; [5]) was 45, the “Ragweed plant response rating” value (ragweed; [6]) was 0 and the “Plant response rating, Ragweed” value (ragweed; [7]) was 20. The “Plant response rating, Ragweed” value (ragweed; [8]) was 55, the “Plant response rating (scale of 0 to 100), Ragweed” value (ragweed; Preemergence, 250 g ai/ha) was 80 and the “Plant response rating, Oilseed Rape” value (oilseed rape; [2]) was 0. For the same molecule, the “Plant response rating, Oilseed Rape” value (oilseed rape; [3]) was 0, the “Plant response rating, Oilseed Rape” value (oilseed rape; [4]) was 0 and the “Plant response rating, Oilseed Rape” value (oilseed rape; [5]) was 0. The “Oilseed Rape plant response rating” value (oilseed rape; [6]) was 0, the “Plant response rating, Oilseed Rape” value (oilseed rape; [7]) was 0 and the “Plant response rating, Oilseed Rape” value (oilseed rape; [8]) was 70. For the same molecule, the “Plant response rating (scale of 0 to 100), Oilseed Rape” value (oilseed rape; Preemergence, 250 g ai/ha) was 90, the “Plant response rating, Waterhemp” value (waterhemp; [2]) was 0 and the “Plant response rating, Waterhemp” value (waterhemp; [3]) was 0. For the same molecule, the “Plant response rating, Waterhemp” value (waterhemp; [4]) was 15, the “Plant response rating, Waterhemp” value (waterhemp; [5]) was 20 and the “Waterhemp plant response rating” value (waterhemp; [6]) was 0. The “Plant response rating, Waterhemp” value (waterhemp; [7]) was 60, the “Plant response rating, Waterhemp” value (waterhemp; [8]) was 75 and the “Plant response rating (scale of 0 to 100), Waterhemp” value (waterhemp; Preemergence, 250 g ai/ha) was 85. The “Plant response rating, Oat, Wild” value (oat, wild; [9]) was 0, the “Plant response rating, Oat, Wild” value (oat, wild; [10]) was 0 and the “Plant response rating, Oat, Wild” value (oat, wild; [11]) was 0. For the same molecule, the “Plant response rating, Oat, Wild” value (oat, wild; [12]) was 0.

`O=C1NCC(c2ccc(C(F)(F)F)cc2)C1C(=O)Nc1cccc(F)c1F` (racemic) [Compound 202] was tested, and the “Plant response rating, Pigweed” value (pigweed; [1]) was 60, the “Plant response rating, Pigweed” value (pigweed; Postemergence, 125 g ai/ha, 0 is no effect, 100 is complete control) was 70 and the “Pigweed plant response rating (0 to 100 scale, 0 is no effect, 100 is complete control)” value (pigweed; Postemergence, 500 g ai/ha) was 80. The “Plant response rating, Pigweed” value (pigweed; preemergence, 500 g ai/ha, 0 is no effect and 100 is complete control) was 70, the “Plant response rating, Wheat” value (wheat; 0 is no effect, 100 is complete control) was 40 and the “Wheat plant response rating (0 to 100 scale, 0 is no effect, 100 is complete control)” value (wheat) was 50. The “Plant response rating, Corn” value (corn; 125 g ai/ha, 0 to 100 scale, 0 is no effect, 100 is complete control) was 80, the “Corn plant response rating (0 to 100 scale, 0 is no effect, 100 is complete control)” value (corn; 500 g ai/ha) was 90 and the “Plant response rating, Rice” value (rice) was 15. The “Plant response rating, Sedge, Umbrella” value (sedge, umbrella) was 0, the “Plant response rating, Barnyardgrass” value (barnyardgrass) was 65 and the “Plant response rating, Wheat” value (wheat (winter wheat); [2]) was 0. The “Plant response rating, Wheat” value (wheat (winter wheat); [3]) was 0, the “Plant response rating, Wheat” value (wheat (winter wheat); [4]) was 0 and the “Plant response rating, Wheat” value (wheat (winter wheat); [5]) was 5. For the same molecule, the “Wheat plant response rating” value (wheat (winter wheat); [6]) was 0, the “Wheat plant response rating” value (wheat (winter wheat); [13]) was 30 and the “Plant response rating, Wheat” value (wheat (winter wheat); [8]) was 55. For the same molecule, the “Plant response rating (scale of 0 to 100), Wheat” value (wheat (winter wheat); Preemergence, 250 g ai/ha) was 60, the “Plant response rating, Morningglory” value (morningglory; [2]) was 5 and the “Plant response rating, Morningglory” value (morningglory; [3]) was 10. For the same molecule, the “Plant response rating, Morningglory” value (morningglory; [4]) was 70, the “Plant response rating, Morningglory” value (morningglory; [5]) was 10 and the “Morningglory plant response rating” value (morningglory; [6]) was 15. The “Morningglory plant response rating” value (morningglory; [13]) was 25, the “Plant response rating, Morningglory” value (morningglory; [8]) was 25 and the “Plant response rating (scale of 0 to 100), Morningglory” value (morningglory; Preemergence, 250 g ai/ha) was 40. For the same molecule, the “Plant response rating, Ragweed” value (ragweed; [2]) was 70, the “Plant response rating, Ragweed” value (ragweed; [3]) was 75 and the “Plant response rating, Ragweed” value (ragweed; [4]) was 80. For the same molecule, the “Plant response rating, Ragweed” value (ragweed; [5]) was 85, the “Ragweed plant response rating” value (ragweed; [6]) was 65 and the “Ragweed plant response rating” value (ragweed; [13]) was 85. The “Plant response rating, Ragweed” value (ragweed; [8]) was 85, the “Plant response rating (scale of 0 to 100), Ragweed” value (ragweed; Preemergence, 250 g ai/ha) was 100 and the “Plant response rating, Oilseed Rape” value (oilseed rape; [2]) was 0. The “Plant response rating, Oilseed Rape” value (oilseed rape; [3]) was 0, the “Plant response rating, Oilseed Rape” value (oilseed rape; [4]) was 50 and the “Plant response rating, Oilseed Rape” value (oilseed rape; [5]) was 50. For the same molecule, the “Oilseed Rape plant response rating” value (oilseed rape; [6]) was 25, the “Oilseed Rape plant response rating” value (oilseed rape; [13]) was 80 and the “Plant response rating, Oilseed Rape” value (oilseed rape; [8]) was 85. The “Plant response rating (scale of 0 to 100), Oilseed Rape” value (oilseed rape; Preemergence, 250 g ai/ha) was 90, the “Plant response rating, Waterhemp” value (waterhemp; [2]) was 60 and the “Plant response rating, Waterhemp” value (waterhemp; [3]) was 65. For the same molecule, the “Plant response rating, Waterhemp” value (waterhemp; [4]) was 75, the “Plant response rating, Waterhemp” value (waterhemp; [5]) was 85 and the “Waterhemp plant response rating” value (waterhemp; [6]) was 85. The “Waterhemp plant response rating” value (waterhemp; [13]) was 95, the “Plant response rating, Waterhemp” value (waterhemp; [8]) was 100 and the “Plant response rating (scale of 0 to 100), Waterhemp” value (waterhemp; Preemergence, 250 g ai/ha) was 100. For the same molecule, the “Plant response rating, Oat, Wild” value (oat, wild; [9]) was 0, the “Plant response rating, Oat, Wild” value (oat, wild; [10]) was 0 and the “Plant response rating, Oat, Wild” value (oat, wild; [11]) was 30. The “Plant response rating, Oat, Wild” value (oat, wild; [12]) was 10.
